In article PMC3907559, “KDT501, a Derivative from Hops, Normalizes Glucose Metabolism and Body Weight in Rodent Models of Diabetes” (PLoS ONE, 2014):

Legend:
THP-1 cells = assay: LPS-stimulated inflammatory mediators in THP-1 cells; format: cell-based, human; settings: 1 hour pre-incubation, LPS 1 µg/mL overnight, various concentrations (KDT501 6.25 to 50 µM)
Method: THP-1 cells were maintained in RPMI1640 in the presence of 10% serum according to manufacturer's instructions as described earlier. The cells were pre-incubated with various concentrations of test compounds (KDT501, rosiglitazone, telmisartan, DHA or PGJ2) in the presence of 1% serum medium for 1 hour, then stimulated with TNF-α (10 ng/ml) or LPS (1 µg/ml) overnight (16–20 hours. Cytokines were assayed using a Milliplex MAP human cytokine/chemokine kit and Luminex 100™ IS. Data were analyzed using a five-parameter logistic method and represented as Mean ±SD of four independent samples.

[1] = test system: human subcutaneous adipocytes; assay: Lipogenesis in human subcutaneous adipocytes (Oil Red O); format: cell-based; settings: 10 days, relative to DMSO
Method: (§1) Murine 3T3-L1 preadipocytes were maintained in DMEM supplemented with 10% FBS as described earlier. Cells were seeded at an initial density of approximately […] in 24-well plates. After confluence, cells were treated with KDT501 ([…]), rosiglitazone (10 µM), or DMSO on day 0. Cells were differentiated in differentiation medium consisting of 10% FBS/DMEM, 0.5 mM methylisobutylxanthine, 0.5 µM dexamethasone, and 10 µg/mL insulin. After two days, the medium was changed to progression medium consisting of 10 µg/mL insulin in 10% FBS/DMEM followed by 2 more days in maintenance medium consisting of 10% FBS/DMEM. KDT501 or rosiglitazone were included throughout the maturation phase (day 6/day 7). Human subcutaneous primary adipocytes were maintained as described for 3T3L1 adipocytes and treated with rosiglitazone (1 µM), KDT501 (10 µM), telmisartan (10 µM), DHA (10 µM) or PGJ2 (10 µM) for 10 days. Intracellular lipid was quantified with Oil O-Red staining using an adipogenesis assay kit from (Millipore, Billerica, MA). The medium was carefully discarded and washed twice with PBS. 300 µL Of Oil O-Red solution were added and incubated for 15 minutes at room temperature. The cells were washed, and bound dye was extracted and transferred to a 96 well plate. Absorbance was measured at 530 nm using a plate reader (Thermo Electron Corp.). Fold change relative to DMSO control was calculated from four independent wells for each condition. Data represent Mean ± SD.

RAW264.7 cells = assay: LPS-activated PGE2 and NO in RAW264.7 cells; format: cell-based; settings: results not shown
[2] = test system: human subcutaneous adipocytes; assay: Gene expression profile and gene ontology in human subcutaneous adipocytes; format: cell-based; settings: 5 days
Method: Human subcutaneous primary adipocytes were maintained as described earlier. Cells were seeded at an initial density of approximately 2×10^6 cells in 6-well plates with PGM-2 medium (2 mL medium/well) and allowed to grow for 24 hr to confluence. Cells were treated with test compounds KDT501 (25 µM), rosiglitazone (1 µM), telmisartan (10 µM), or DMSO in adipocyte differentiating medium. The differentiation medium consisted of indomethacin, methylisobutylxanthine, dexamethasone, and insulin from PGM-2 single aliquots. After 5 days, the cells were washed in PBS, frozen in liquid nitrogen and shipped to Expression Analysis (Durham, NC) in dry ice. Three independent plates were used for each condition. RNA was extracted using the miRNeasy Mini Kit (Qiagen) as described by the manufacturer. RNA was isolated and expression profiling was performed using the Ambion WT Expression Kit (Life Technologies). Labeled target, which was hybridized to GeneChip Human Gene 1.0 ST Arrays (Affymetrix), was prepared essentially as described by the manufacturer. This cDNA was then used as a template for in vitro transcription using T7 RNA Polymerase to produce anti-sense RNA, which was then converted into single-stranded sense cDNA that was fragmented and labeled with biotin prior to hybridization to the GeneChip Arrays. […]

3T3L1 adipocytes = assay: Lipogenesis in 3T3L1 adipocytes (Oil Red O); format: cell-based, murine; settings: 10 µM, 6 days, relative to DMSO
Method: as §1, with “The cells were washed, and bound dye was extracted and transferred to a 96 well plate.” left out, “Data represent Mean ± SD.” left out

ZDF rats = assay: Second ZDF rat study (total cholesterol, triglycerides in plasma); format: in vivo; settings: twice daily oral
Method: Blood was collected via tail bleed and whole blood glucose was measured on days 1, 8, 15 and 29. Blood was collected in 5 animals on days 15 and 29 for determination of glucose, insulin, lipids, hematocrit, and HbA1c. Animals were fasted overnight and OGTT was conducted on days 31 and 32 for determination of glucose and insulin levels. A second ZDF rat study was conducted and the resulting data on total cholesterol are presented. Statistical calculations were performed (JMP version, SAS Institute, Cary, NC). One-way ANOVA with Dunnett's test for post hoc determinations were used to compare vehicle treated control. Data were expressed as mean ± SEM.

DIO mice = assay: DIO mice, oral dosing twice daily (body fat, OGTT); format: in vivo, C57Bl6/J male mice; settings: for OGTT glucose AUC / OGTT insulin AUC: four weeks, vs controls
Method: C57Bl6/J male mice were 15 weeks old at the start of the experiment. In general, DIO models are initiated at an early age to evaluate effects on obesity. However, older, overweight mice were used in this study to represent middle-aged human subjects for the assessment of metabolic parameters associated with weight loss/diabetes. The mice were housed individually in cages at 72±4°F with a relative humidity of 30–70% with 12 hour light- dark cycle. High fat diet (40% Cal) TD95217 (Teklad Custom Research Diet) was used in this study. The test compounds were administered orally twice per day at 12 hour intervals (10 mL/kg) in 0.5% methylcellulose and 0.2% Tween 80 (w/v). Mice were randomly allocated on the basis of body weight to seven groups (N = 10/group), with five animals for the oral glucose tolerance test (OGTT) and 5 animals for the insulin tolerance test. […] Body weight and food consumption were determined weekly. After 30 days, the mice were fasted overnight, blood was drawn through the tail vein and baseline blood glucose was measured using a glucose analyzer. One hour later, mice were given an oral gavage of glucose solution in water (4 ml/kg, 2 g/kg) and blood samples were taken at 15, 30, 60, and 120 min to determine plasma glucose and insulin levels. Five days before the start of the experiment (t = −5 days) and again at the end of the experiment (t = 28 days), body fat was determined using QNMR. With the exception of the group treated with 200 mg/kg KDT501, 10 animals/group were used in the determinations. Insulin and HbA1c glucose levels were determined on days 1, 15 and 29. Statistical calculations were performed (JMP version, SAS Institute, Cary, NC). One-way ANOVA with Dunnett's test for post hoc determinations were used to compare vehicle treated control. Data were expressed as mean ± SEM.

[3] = test system: Zucker Diabetic Fatty (ZDF) rats; assay: ZDF rats, oral dosing twice daily (weight, HbA1c, glucose, OGTT); format: in vivo, rat
Method: Male ZDF rats were obtained from Charles River Laboratories at approximately 7 weeks of age. Rats were maintained ad lib on Purina #5008 diet, delivering approximately 17% of calories from fat. Animals with fasting glucose between 150–350 mg/dL were randomized based on glucose and body weight. Test articles were prepared in 0.5% (w/v) methylcellulose + 0.2% (w/v) Tween 80 and given by oral gavage twice daily. Rats (10/group, 6 treatment groups) were administered KDT501 (100, 150, or 200 mg/kg), metformin (200 mg/kg), pioglitazone (30 mg/kg) or vehicle control for up to 32 days. Body weights and food intake were determined weekly. Blood was collected via tail bleed and whole blood glucose was measured on days 1, 8, 15 and 29. Blood was collected in 5 animals on days 15 and 29 for determination of glucose, insulin, lipids, hematocrit, and HbA1c. Animals were fasted overnight and OGTT was conducted on days 31 and 32 for determination of glucose and insulin levels. A second ZDF rat study was conducted and the resulting data on total cholesterol are presented. Statistical calculations were performed (JMP version, SAS Institute, Cary, NC). One-way ANOVA with Dunnett's test for post hoc determinations were used to compare vehicle treated control. Data were expressed as mean ± SEM.

PPARγ = target: T1, PPARγ (Homo sapiens, UniProt P37231); assay: PPARγ reporter assay (Indigo Biosciences); format: cell-based
T1 sequence (P37231 1-505): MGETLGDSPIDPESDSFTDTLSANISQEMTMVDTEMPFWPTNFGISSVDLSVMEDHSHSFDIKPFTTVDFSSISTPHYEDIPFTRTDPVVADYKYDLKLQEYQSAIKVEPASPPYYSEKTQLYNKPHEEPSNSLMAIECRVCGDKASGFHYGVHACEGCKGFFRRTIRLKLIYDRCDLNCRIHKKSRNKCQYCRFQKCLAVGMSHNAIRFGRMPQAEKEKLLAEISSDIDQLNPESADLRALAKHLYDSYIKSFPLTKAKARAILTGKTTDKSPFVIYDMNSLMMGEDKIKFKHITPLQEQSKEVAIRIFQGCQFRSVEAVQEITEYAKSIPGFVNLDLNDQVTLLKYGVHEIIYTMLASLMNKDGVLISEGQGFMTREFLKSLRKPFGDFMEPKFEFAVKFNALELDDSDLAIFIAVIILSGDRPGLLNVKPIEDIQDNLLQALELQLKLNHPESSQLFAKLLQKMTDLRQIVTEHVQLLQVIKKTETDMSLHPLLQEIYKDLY
Method: PPAR assay kits from Indigo Biosciences and supplemented protocols were used in this study. Briefly, the reporter cells were treated in triplicates with various concentrations of KDT501 (25–0.78 µM). Telmisartan (10–0.625 µM), GW590735 (10–0.03 µM), and GW0742 (1–0.01 µM) were used as positive controls for PPARγ, PPARα and PPARδ respectively. […]. Cells were incubated for 20 hours as per the protocol and read using a luminometer (Victor2, Perkin Elmer). Average relative light unit (RLU) values from blank wells were subtracted from all the samples. The final data were compared with DMSO control and statistical analyses were performed using GraphPad Prism.

CN(CCOc1ccc(CC2SC(=O)NC2=O)cc1)c1ccccn1 (centres unmarked) [rosiglitazone]
LPS stimulated IL-6 (THP-1 cells): did not significantly affect
LPS stimulated MCP-1 (THP-1 cells): did not significantly affect
LPS stimulated RANTES (THP-1 cells): did not significantly affect
lipogenesis, fold increase ([1]; 1 µM): 10.3 fold
induction of LPS-activated PGE2 (RAW264.7 cells): not with rosiglitazone
number of transcripts stimulated at least 2-fold ([2]; 1 µM): 62
lipogenesis, fold increase (3T3L1 adipocytes): about 2.8 fold

CN(C)C(=N)N=C(N)N [metformin]
total cholesterol in plasma (ZDF rats; metformin group): neither metformin nor pioglitazone had this effect
OGTT glucose AUC (DIO mice; 200 mg/kg twice per day oral): significantly reduced
OGTT insulin AUC (DIO mice; 200 mg/kg twice per day oral): significantly reduced
fat mass by the end of the study (QNMR) (DIO mice; 200 mg/kg twice per day oral, vs vehicle): Significant reduction
body weight ([3]; 200 mg/kg twice daily oral (metformin group)): gained weight

CCc1ccc(CCOc2ccc(CC3SC(=O)NC3=O)cc2)nc1 (centres unmarked) [pioglitazone]
total cholesterol in plasma (ZDF rats; pioglitazone group): neither metformin nor pioglitazone had this effect
triglycerides in plasma (ZDF rats; pioglitazone group, day 15 and day 30): reduced triglycerides
OGTT glucose AUC (DIO mice; 30 mg/kg twice per day oral): significantly reduced
OGTT insulin AUC (DIO mice; 30 mg/kg twice per day oral): significantly reduced
HbA1c at the end of the study ([3]; 30 mg/kg twice daily oral): approximately half that of the vehicle-treated control
body weight ([3]; 30 mg/kg twice daily oral): gained weight

CC/C=C\C/C=C\C/C=C\C/C=C\C/C=C\C/C=C\CCC(=O)O [DHA]
LPS stimulated IL-6 (THP-1 cells): inhibited these cytokines in a concentration-dependent manner
LPS stimulated MCP-1 (THP-1 cells): inhibited these cytokines in a concentration-dependent manner
LPS stimulated RANTES (THP-1 cells): inhibited these cytokines in a concentration-dependent manner
lipogenesis, fold increase ([1]; 10 µM): No significant changes

CCCc1nc2c(C)cc(-c3nc4ccccc4n3C)cc2n1Cc1ccc(-c2ccccc2C(=O)O)cc1 [telmisartan]
LPS stimulated IL-6 (THP-1 cells): inhibited these cytokines in a concentration-dependent manner
LPS stimulated MCP-1 (THP-1 cells): inhibited these cytokines in a concentration-dependent manner
LPS stimulated RANTES (THP-1 cells): inhibited these cytokines in a concentration-dependent manner
lipogenesis, fold increase ([1]; 10 µM): 3.5 fold
EC50 (PPARγ): 13.4 µM
number of transcripts changed ([2]; 10 µM, 5 up and 3 down, common to rosiglitazone and KDT501): 8

CCCCC/C=C/C=C1/C(=O)C=C[C@@H]1C/C=C\CCCC(=O)O [PGJ2, 5-deoxy-Δ12,14-PGJ2]
LPS stimulated IL-6 (THP-1 cells): inhibited these cytokines in a concentration-dependent manner
LPS stimulated MCP-1 (THP-1 cells): inhibited these cytokines in a concentration-dependent manner
LPS stimulated RANTES (THP-1 cells): inhibited these cytokines in a concentration-dependent manner
lipogenesis, fold increase ([1]; 10 µM): 8.8 fold
